What was measured:
EP2 [1] = target: T1, EP2 (Homo sapiens (Human), UniProt P43116); experiment: EP2 cAMP functional assay; assay type: cell-based
EP4 [2] = target: T2, EP4 (Homo sapiens (Human), UniProt P35408); experiment: EP4 cAMP functional assay; assay type: cell-based
EP2 [3] = target: T1, EP2; experiment: EP2 radioligand competition binding ([3H]PGE2); conditions: HEK-293 cells stably expressing receptor, [3H]PGE2 radioligand
Protocol: Competition binding experiments were performed in a medium containing Hank's balanced salt solution, Hepes 20 mM, pH 7.3, membranes (˜60 μg protein) or 2×10^5 cells from HEK 293 cells stably expressing human EP2 receptors, [^3H]PGE2 (10 nM) and various concentrations of test compounds in a total volume of 300 μl. Reaction mixtures were incubated at 23° C. for 60 min, and were filtered over Whatman GF/B filters under vacuum. Filters were washed three times with 5 ml ice-cold buffer containing 50 mM Tris/HCl (pH 7.3). Non-specific binding was estimated in the presence of excess unlabeled PGE2 (10 μM). Binding data fitted to the binding model for a single class of binding sites, using nonlinear regression analysis. IC50 values thus obtained were converted to Ki using the equation of Ki=(IC50/(1+[L]/KD) where [L] represents PGE2 concentration (10 nM) and KD the dissociation constant for [^3H]PGE2 at human EP2 receptors (40 nM). […]
The cell homogenate was centrifuged at 19000 r.p.m. for 20 min at 4° C. using a Beckman Ti-60 rotor. The resultant pellet was resuspended in TME buffer to give a final 1 mg/ml protein concentration, as determined by Biorad assay. […]
[^3H—] […] 17-phenyl PGF2a and non-specific binding determined with 10^−5M of unlabeled PGE2, or 17-phenyl PGF2a, according to receptor subtype studied.

EP4 [4] = target: T2, EP4; experiment: EP4 radioligand competition binding ([3H]PGE2); conditions: HEK-293 cells stably expressing receptor, [3H]PGE2 radioligand
Protocol: HEK-293 cells stably expressing the human or feline FP receptor, or EP1, EP2, or EP4 receptors were washed with TME buffer, scraped from the bottom of the flasks, and homogenized for 30 sec using a Brinkman PT 10/35 polytron. TME buffer was added to achieve a final 40 ml volume in the centrifuge tubes (the composition of TME is 100 mM TRIS base, 20 mM MgCl2, […]; 10N HCl is added to achieve a pH of 7.4).
The cell homogenate was centrifuged at 19000 r.p.m. for 20 min at 4° C. using a Beckman Ti-60 rotor. The resultant pellet was resuspended in TME buffer to give a final 1 mg/ml protein concentration, as determined by Biorad assay. Radioligand binding competition assays vs. [^3H-]17-phenyl PGF2a (5 nM) were performed in a 100 μl volume for 60 min. Binding reactions were started by adding plasma membrane fraction. The reaction was terminated by the addition of 4 ml ice-cold TRIS-HCl buffer and rapid filtration through glass fiber GF/B filters using a Brandel cell harvester. The filters were washed 3 times with ice-cold buffer and oven dried for one hour.
[^3H—] PGE2 (specific activity 180 Ci mmol) was used as the radioligand for EP receptors. [^3H] 17-phenyl PGF2a was employed for FP receptor binding studies. […] 17-phenyl PGF2a and non-specific binding determined with 10^−5M of unlabeled PGE2, or 17-phenyl PGF2a, according to receptor subtype studied.

T1 sequence (P43116 whole entry): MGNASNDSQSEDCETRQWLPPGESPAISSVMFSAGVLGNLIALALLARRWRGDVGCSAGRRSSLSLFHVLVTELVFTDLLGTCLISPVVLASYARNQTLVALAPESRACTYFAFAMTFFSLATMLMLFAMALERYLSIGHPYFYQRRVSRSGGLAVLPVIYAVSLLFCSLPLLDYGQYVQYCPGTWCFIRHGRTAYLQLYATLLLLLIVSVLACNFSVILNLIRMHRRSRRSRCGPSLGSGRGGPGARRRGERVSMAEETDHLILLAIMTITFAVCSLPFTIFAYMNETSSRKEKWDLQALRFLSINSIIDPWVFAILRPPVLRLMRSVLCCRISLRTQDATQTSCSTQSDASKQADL
T2 sequence (P35408 whole entry): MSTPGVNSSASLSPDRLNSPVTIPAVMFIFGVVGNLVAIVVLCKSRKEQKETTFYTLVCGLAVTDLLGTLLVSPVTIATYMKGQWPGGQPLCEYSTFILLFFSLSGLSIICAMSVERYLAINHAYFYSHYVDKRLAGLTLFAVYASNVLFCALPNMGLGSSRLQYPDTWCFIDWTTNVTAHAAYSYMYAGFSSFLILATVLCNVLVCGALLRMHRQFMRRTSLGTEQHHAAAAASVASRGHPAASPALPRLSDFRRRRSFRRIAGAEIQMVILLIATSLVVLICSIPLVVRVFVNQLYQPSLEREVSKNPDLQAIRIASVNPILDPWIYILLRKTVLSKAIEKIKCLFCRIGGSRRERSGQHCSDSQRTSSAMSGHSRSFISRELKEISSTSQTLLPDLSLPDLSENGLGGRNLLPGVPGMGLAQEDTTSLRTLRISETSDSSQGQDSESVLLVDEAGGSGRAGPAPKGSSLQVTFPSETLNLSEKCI

EC50 (EP2 [1]): 38 nM
EC50 (EP4 [2]): 1 nM
EC50 (EP2 [3]): 96 nM
EC50 (EP4 [4]): 53 nM
Structure (SMILES): O=C(O)c1ccc(CCCN2[C@@H](/C=C/C(O)Cc3cccc(C(F)(F)F)c3)CCS2(=O)=O)s1 (stereo partly drawn) [Compound 14, 5-(3-((3R)-3-((E)-3-Hydroxy-4-(3-(trifluoromethyl)phenyl)but-1-en-1-yl)-1,1-dioxidoisothiazolidin-2-yl)propyl)thiophene-2-carboxylic acid]
